From article PMC4309170, “The dipeptidyl peptidase IV inhibitors vildagliptin and K-579 inhibit a phospholipase C: a case of promiscuous scaffolds in proteins” (F1000Research, 2015)

Target: phosphoinositide-specific phospholipase C (PI-PLC) (Bacillus cereus, UniProt P14262)
Assay: PI-PLC-induced liposome (LUV) aggregation assay, turbidity at […] nm, dose-response
Assay type: biochemical

phosphoinositide-specific phospholipase C (PI-PLC), sequence (P14262 32-329 limits assumed): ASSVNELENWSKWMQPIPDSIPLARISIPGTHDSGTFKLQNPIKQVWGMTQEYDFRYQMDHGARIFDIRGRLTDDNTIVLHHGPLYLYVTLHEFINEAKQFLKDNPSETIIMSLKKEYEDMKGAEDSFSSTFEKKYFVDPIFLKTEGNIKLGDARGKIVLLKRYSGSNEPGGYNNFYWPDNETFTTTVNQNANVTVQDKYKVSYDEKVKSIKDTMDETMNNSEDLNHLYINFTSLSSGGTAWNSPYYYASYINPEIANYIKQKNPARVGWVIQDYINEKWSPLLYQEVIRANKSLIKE

With `N#C[C@@H]1CCCN1C(=O)CNC12CC3CC(CC(O)(C3)C1)C2` [LAF-237, 1-[[(3-hydroxy-1-adamantyl)amino]acetyl]-2-cyano-(S)-pyrrolidine] as the compound, how does the IC50 read?
Its IC50 is 100 µM.
